In patent publication US20230084978A1, “OPTIMIZATION OF PEPTIDE-MELANIN BINDING” (ASSITANCE PUBLIQUE - HÔPITAUX DE PARIS, priority 2020, published 2023):
Non-standard residues stand in square brackets, D forms with d. No end group written: not given here. Hyp = O=C(O)[C@@H]1C[C@@H](O)CN1

Assays:
[1] = system: humanized female HLADRB1* 0101/HLA-A*0201 (HHD DR1) mice; test: CTL response (IFNg-SFCs of re-stimulated splenocytes) after subcutaneous immunization in humanized mice; format: in vivo; conditions: 10 μg/mouse subcutaneous, day 8, more than 10 spots is positive
Method: CTL response was evaluated after subcutaneous immunizations in humanized female HLADRB1* 0101/HLA-A*0201 (HHD DR1) mice.
L-Dopa (0.8 mg/ml) underwent an oxidative polymerization at pH 8.5 in aerobic conditions for 2 hours at 60° C. The reaction mixture was then filtered on a 10 kDa filter, and the retentate containing the synthetic melanin was resuspended at pH 7.5 in phosphate buffer.
Peptides (A10, SEQ ID NO: 29; A8, SEQ ID NO: 34; A30, SEQ ID NO: 31, 10 μg/mouse) were then added (at the weight ratio peptide/L-Dopa=1/4).
Mixtures (either Mel+peptides or Peptides alone) were rapidly (<1 hour) used for subcutaneous immunizations in mice. Phosphorothioate oligonucleotide CpG-28 (5′-[…], SEQ ID NO: 21) was added to vaccine formulations (10 μg/mouse) just before the immunizations. Mice were sacrificed on day 8 and the CTL response was performed as described in Carpentier; 2017. Briefly, splenocytes were re-stimulated in vitro with the corresponding peptide (non-conjugated to melanin) and the numbers of IFNg-SFCs (Spot forming cells) were measured and expressed as Mean+/−S.E.M. (n=4 to 8 mice/group). More than 10 spots is considered as a positive immune response

[2] = Binding of peptides to synthetic melanin (Tricine-SDS-PAGE analysis); conditions: for Binding of peptides on synthetic melanin, Mel + peptide: L-Dopa polymerized first, peptide added (1/4); for Binding of peptides on synthetic melanin, Mel + peptide 2 hours at pH 7.4: filtered (10 kDa) preformed melanin; for Binding of peptides on synthetic melanin, Mel + peptide 2 hours at pH 7.4 / Binding of peptides on synthetic melanin, Mel + peptide 18 hours at pH 7.4 / Binding of peptides on synthetic melanin, Mel + peptide 18 hours at pH 8.5 / Binding of peptides on synthetic melanin, Mel + peptide 10 minutes / Binding of peptides on synthetic melanin, Mel + peptide 2 hours / Binding of peptides on synthetic melanin, Mel + peptide 18 hours: peptide/L-Dopa 1/4; for Binding of peptides on synthetic melanin, Mel + peptide 18 hours at pH 7.4 / Binding of peptides on synthetic melanin, Mel + peptide 18 hours at pH 8.5: filtered preformed melanin; for Binding of peptides on synthetic melanin, Peptide-Mel: peptide/L-Dopa 1/4 mixed, then 2 hours at pH 8.5 and 60° C.; for Binding of peptides on synthetic melanin, Mel + peptide 10 minutes / Binding of peptides on synthetic melanin, Mel + peptide 2 hours / Binding of peptides on synthetic melanin, Mel + peptide 18 hours: filtered preformed melanin at pH 7.5; for peptide binding to melanin: binding-promoting amino-acid at NH2-terminal vs COOH terminal end
From the text: The binding of the peptide to the melanin can be verified by Tricine-SDS-PAGE analysis as described in Carpentier; 2017 (op. cit.). Briefly, samples (peptide-Mel or peptide alone) are loaded on acrylamide gels. Following electrophoresis, the gels are stained with Coomassie Brilliant Blue R-250, allowing the quantification of the free peptide in the gel. The binding of peptides to melanin can be expressed as the ratio: [amount of unbound peptide in samples Peptide-Mel/amount of peptides in control samples containing peptides alone.
Peptides were mixed with L-Dopa (weight ratio peptide/L-Dopa=1/4 and 1/6 for gp100 and EphA2, respectively) then incubated for 2 hours at pH 8.5 and 60° C. under agitation to ensure oxygenation of the solution to generate nanoparticles of melanin-bound peptides (Peptide-Mel). Alternatively, L-Dopa alone (0.8 mg/ml) was polymerized into melanin for 2 h at pH 8.5 and 60° C. under agitation, before the peptides (weight ratio peptide/L-Dopa=1/4 and 1/6 for gp100 and EphA2, respectively) were added to the solution (Mel+peptide). Tricine-SDS-PAGE analysis was performed as described in Carpentier; 2017 (op. cit.). Briefly, samples (peptide-Mel or peptide alone) were loaded on acrylamide gels. Following electrophoresis, the gels were stained with Coomassie Brilliant Blue R-250 and imaged with the ChemiDoc XRS+ system (Bio-Rad Laboratory), allowing the quantification of the free peptide in the gel. The binding of peptides to melanin was expressed as the ratio: [amount of unbound peptide in samples Peptide-Mel/amount of peptides in control samples containing peptides alone]
First column (Peptide-Mel): L-Dopa (0.8 mg/ml) was mixed with peptides (weight ratio peptide/L-Dopa=1/4) then incubated for 2 hours at pH 8.5 and 60° C. to generate nanoparticles of melanin-bound peptides. Alternatively (second column; Mel+peptide), L-Dopa alone (0.8 mg/ml) was first polymerized into melanin for 2 h at pH 8.5 and 60° C. under vigorous agitation, before the peptides (weight ratio peptide/L-Dopa=1/4) were added to the solution and incubated for 2 hours at room temperature. In both cases, the percentage of peptides that bound to melanin was then quantified with SPS-page analysis, as described in table 1. (ND=not done)
L-Dopa (0.8 mg/ml) underwent an oxidative polymerization at pH 8.5 in aerobic conditions for 2 hours at 60° C. The reaction mixture was then filtered on a 10 kDa filter, and the retentate containing the synthetic melanin was resuspended at pH 7.5 in phosphate buffer. Peptides were then added (at the weight ratio peptide/L-Dopa=1/4) and the mixture was incubated for various periods of time and or pH. The percentage of peptides that bound to melanin was then quantified with SPS-page analysis, as described in table 1. (ND=not done).
L-Dopa (0.8 mg/ml) underwent an oxidative polymerization at pH 8.5 and 60° C. for 2 hours. The reaction mixture was then filtered on a 10 kDa filter, and the retentate containing the synthetic melanin was resuspended at pH 7.5 in phosphate buffer. Peptides were then added (at the weight ratio peptide/L-Dopa=1/4) and the mixture was incubated for various periods of time. Binding of the peptides was then quantified with SPS-page analysis, as described in table 1. (ND=not done)

Substance	Binding of peptides on synthetic melanin, Mel + peptide ([2]; 2 hours at room temperature)	Binding of peptides on synthetic melanin, Mel + peptide 2 hours at pH 7.4 [2]	Binding of peptides on synthetic melanin, Mel + peptide 18 hours at pH 7.4 [2]	Binding of peptides on synthetic melanin, Mel + peptide 18 hours at pH 8.5 [2]	Binding of peptides on synthetic melanin, Peptide-Mel [2]	also measured
CKVFAGIPTVASDTV (Modified PTPRZ1 Epitope) [A8]	–	–	–	–	–	numbers of IFNg-SFCs (Spot forming cells), Mean ([1]; Mel + pept + CpG-28): 29; numbers of IFNg-SFCs (Spot forming cells), Mean ([1]; Pept + CpG-28): 5
Acetyl-R C SIYRYYGL (Ac-RCSIYRYYGL) [SEQ ID NO: 8]	53%	53%	46%	42%	74%	–
Acetyl-R S SIYRYYGL (Ac-RSSIYRYYGL) [SEQ ID NO: 10]	–	0%	12%	–	–	–
C KVPRNQDWL (CKVPRNQDWL; Modified gp100 peptide) [SEQ ID NO: 17]	–	–	–	–	–	Binding of peptides on synthetic melanin, Mel + peptide 10 minutes [2]: 9%; Binding of peptides on synthetic melanin, Mel + peptide 2 hours [2]: 54%; Binding of peptides on synthetic melanin, Mel + peptide 18 hours [2]: 99%; binding to melanin (in words), cysteine in oxidized or reduced state ([2]; preformed filtered melanin, 2 hours at room temperature): Binding was observed in both cases
Acetyl-R H SIYRYYGL (Ac-RHSIYRYYGL) [SEQ ID NO: 9]	–	–	–	–	60%	–
Acetyl-R SIYRYYGL (Ac-RSIYRYYGL) [SEQ ID NO: 4]	17%	17%	2%	0%	0%	melanin binding (in words), Peptide-Mel ([2]; peptide mixed with L-Dopa, 2 hours at pH 8.5): No binding
HydroxyP SIYRYYGL ([Hyp]SIYRYYGL) [SEQ ID NO: 6]	23%	23%	39%	74%	95%	–
X-VYDFFVWL [SEQ ID NO: 19]	–	–	–	–	–	peptide binding to melanin [2]: 51%
P SIYRYYGL (PSIYRYYGL; Modified test peptide) [SEQ ID NO: 5]	7%	7%	22%	41%	87%	–
VYDFFVWL-X [SEQ ID NO: 20]	–	–	–	–	–	peptide binding to melanin [2]: 55%
Acetyl-R F SIYRYYGL (Ac-RFSIYRYYGL) [SEQ ID NO: 13]	0%	0%	–	–	5%	–
Acetyl-R M SIYRYYGL (Ac-RMSIYRYYGL) [SEQ ID NO: 11]	–	0%	13%	32%	–	–
Acetyl-R W SIYRYYGL (Ac-RWSIYRYYGL) [SEQ ID NO: 14]	0%	0%	–	–	56%	–
Acetyl-K SIYRYYGL (Ac-KSIYRYYGL) [SEQ ID NO: 7]	–	0%	31%	62%	–	–
CKVFAGIPTV (Modified PTPRZ1 Epitope) [A30]	–	–	–	–	–	numbers of IFNg-SFCs (Spot forming cells), Mean ([1]; Mel + pept + CpG-28): 182
CKSVWSKLQSIGIRQH (Modified UCP2 Peptide) [A10]	–	–	–	–	–	numbers of IFNg-SFCs (Spot forming cells), Mean ([1]; Mel + pept + CpG-28): 150; numbers of IFNg-SFCs (Spot forming cells), Mean ([1]; Pept + CpG-28): 18
P KVPRNQDWL (PKVPRNQDWL; Modified gp100 peptide) [SEQ ID NO: 15]	–	–	–	–	–	Binding of peptides on synthetic melanin, Mel + peptide 10 minutes [2]: 13%; Binding of peptides on synthetic melanin, Mel + peptide 2 hours [2]: 11%; Binding of peptides on synthetic melanin, Mel + peptide 18 hours [2]: 100%
HydroxP KVPRNQDWL ([Hyp]KVPRNQDWL) [SEQ ID NO: 16]	–	–	–	–	–	Binding of peptides on synthetic melanin, Mel + peptide 10 minutes [2]: 12%; Binding of peptides on synthetic melanin, Mel + peptide 2 hours [2]: 35%; Binding of peptides on synthetic melanin, Mel + peptide 18 hours [2]: 100%
M KVPRNQDWL (MKVPRNQDWL; Modified gp100 peptide) [SEQ ID NO: 18]	–	–	–	–	–	Binding of peptides on synthetic melanin, Mel + peptide 10 minutes [2]: 7%; Binding of peptides on synthetic melanin, Mel + peptide 2 hours [2]: 43%; Binding of peptides on synthetic melanin, Mel + peptide 18 hours [2]: 100%
SIYRYYGL [SEQ ID NO: 3, reference compound]	0%	0%	28%	31%	90%	–
Acetyl-R T SIYRYYGL (Ac-RTSIYRYYGL) [SEQ ID NO: 12]	0%	0%	–	–	10%	–
